Reference: US7700577B2, “Carbohydrate based anti-bacterials” (Alchemia Limited, priority 2002, dated 2010)

Legend:
S. aureus = assay: MIC testing, broth microdilution (NCCLS), S. aureus; assay type: cell-based, Staphylococcus aureus; settings: for SA24 (MIC): S. aureus after 24 hours exposure; for SA48 (MIC): S. aureus after 48 hours exposure
Excerpt: (§1) The broth microdilution format of the National Committee for Clinical Laboratory Standards (NCCLS) approved standard for susceptibility tests as outlined in M7-A4 “methods for dillution Antimicrobial susceptibility tests for bacteria that grow aerobically; approved standard—fifth edition”, January 2000 was utilized for minimum inhibitory concentration testing in Mueller-Hinton broth. The broth for Streptococcus pyogenes testing was supplemented with 2% laked horse blood. A positive result in initial testing was determined by complete inhibition of macroscopic bacterial growth at a concentration of 128 micrograms per mL after incubation for 16 to 24 hours at 37 degrees C. In the case of Micrococcus luteus, incubation was at 30 degrees C. […] Bacterial Types Are: • SA24 S. aureus after 24 hours exposure • SA48 S. aureus after 48 hours exposure • EC24 E. coli after 24 hours exposure

E. coli = assay: MIC testing, broth microdilution (NCCLS), E. coli; assay type: cell-based; settings: E. coli after 24 hours exposure
Excerpt: as §1

SMILES | SA24 (MIC) (S. aureus) | EC24 (MIC) (E. coli) | SA48 (MIC) (S. aureus)
Cc1ccc(S(=O)(=O)NC2[C@H](O[C@@H]3C(NC(=O)Nc4cccc(C(F)(F)F)c4)COC(CO)[C@@H]3N)OC(CO)[C@@H](O)[C@@H]2O)cc1 (stereo partly drawn) [compound 50] | + (+ indicates an MIC value of less than 128 micrograms per mL) | – | –
Cc1ccc(S(=O)(=O)NC2[C@H](O[C@@H]3C(NC(=O)Nc4cccc(C(F)(F)F)c4)COC(CO)[C@@H]3NC(=O)c3ccc(-c4ccccc4)cc3)OC(CO)[C@@H](O)[C@@H]2O)cc1 (stereo partly drawn) [compound 49] | – | − (− indicates an MIC of greater then 128 micrograms per mL) | + (+ indicates an MIC value of less than 128 micrograms per mL)
CCCCCCCCCCC(=O)NC1C(CO)OCC(NC(=O)Nc2cccc(C(F)(F)F)c2)C1OC1OC(CO)C(O)C(O)C1NS(=O)(=O)c1ccc(C)cc1 (stereo not drawn) [compound 79] | + (+ indicates an MIC value of less than 128 micrograms per mL) | – | –
CC(C)=CCCC(C)=CCN[C@H]1C(CO)OCC(NC(=N)Nc2cccc(C(F)(F)F)c2)[C@H]1O[C@@H]1OC(CO)[C@@H](O)[C@H](O)C1NC(=N)Nc1cccc(C(F)(F)F)c1 (stereo partly drawn) [compound 23] | + (+ indicates an MIC value of less than 128 micrograms per mL) | + (+ indicates an MIC value of less than 128 micrograms per mL) | + (+ indicates an MIC value of less than 128 micrograms per mL)
CCCCCN(CCCCC)C1C(CO)OCC(NC(=O)Nc2cccc(C(F)(F)F)c2)C1OC1OC(CO)C(O)C(O)C1NC(=O)Nc1cccc(C(F)(F)F)c1 (stereo not drawn) [compound 60] | + (+ indicates an MIC value of less than 128 micrograms per mL) | – | + (+ indicates an MIC value of less than 128 micrograms per mL)
O=C(Nc1cccc(C(F)(F)F)c1)NC1[C@H](O[C@@H]2C(NS(=O)(=O)c3cccc(C(F)(F)F)c3)COC(CO)[C@@H]2NC(=O)c2ccc(-c3ccccc3)cc2)OC(CO)[C@@H](O)[C@@H]1O (stereo partly drawn) [compound 37] | + (+ indicates an MIC value of less than 128 micrograms per mL) | − (− indicates an MIC of greater then 128 micrograms per mL) | + (+ indicates an MIC value of less than 128 micrograms per mL)
CCCCCC(C)CCC(=O)N[C@H]1C(CO)OCC(NC(=N)Nc2cccc(C(F)(F)F)c2)[C@H]1O[C@@H]1OC(CO)[C@@H](O)[C@H](O)C1NC(=N)Nc1cccc(C(F)(F)F)c1 (stereo partly drawn) [compound 19] | + (+ indicates an MIC value of less than 128 micrograms per mL) | + (+ indicates an MIC value of less than 128 micrograms per mL) | + (+ indicates an MIC value of less than 128 micrograms per mL)
CC(C)=CCCC(C)=CCCC(C)=CCN[C@H]1C(CO)OCC(NC(=N)Nc2cccc(C(F)(F)F)c2)[C@H]1O[C@@H]1OC(CO)[C@@H](O)[C@H](O)C1NC(=N)Nc1cccc(C(F)(F)F)c1 (stereo partly drawn) [compound 24] | + (+ indicates an MIC value of less than 128 micrograms per mL) | + (+ indicates an MIC value of less than 128 micrograms per mL) | + (+ indicates an MIC value of less than 128 micrograms per mL)
O=C(N[C@H]1C(CO)OCC(NS(=O)(=O)c2cccc(C(F)(F)F)c2)[C@H]1O[C@@H]1OC(CO)[C@@H](O)[C@H](O)C1NS(=O)(=O)c1cccc(C(F)(F)F)c1)c1ccc(-c2ccccc2)cc1 (stereo partly drawn) [compound 36] | + (+ indicates an MIC value of less than 128 micrograms per mL) | – | + (+ indicates an MIC value of less than 128 micrograms per mL)
N[C@H]1C(CO)OCC(NC(=O)Nc2cccc(C(F)(F)F)c2)[C@H]1O[C@@H]1OC(CO)[C@@H](O)[C@H](O)C1NC(=O)OCc1ccccc1 (stereo partly drawn) [compound 45] | + (+ indicates an MIC value of less than 128 micrograms per mL) | – | –
O=C(/C=C/c1ccc(Cl)cc1)N[C@H]1C(CO)OCC(NC(=O)Nc2cccc(C(F)(F)F)c2)[C@H]1O[C@@H]1OC(CO)[C@@H](O)[C@H](O)C1NC(=O)Nc1cccc(C(F)(F)F)c1 (stereo partly drawn) [compound 58] | + (+ indicates an MIC value of less than 128 micrograms per mL) | – | + (+ indicates an MIC value of less than 128 micrograms per mL)
N=C(Nc1cccc(C(F)(F)F)c1)NC1[C@H](O[C@@H]2C(NC(=N)Nc3cccc(C(F)(F)F)c3)COC(CO)[C@@H]2NC(=O)c2ccc(-c3ccccc3)cc2)OC(CO)[C@@H](O)[C@@H]1O (stereo partly drawn) [compound 16] | + (+ indicates an MIC value of less than 128 micrograms per mL) | + (+ indicates an MIC value of less than 128 micrograms per mL) | + (+ indicates an MIC value of less than 128 micrograms per mL)
Cc1ccc(S(=O)(=O)NC2C(OC3C(NC(=N)Nc4cccc(C(F)(F)F)c4)COC(CO)C3NC(=O)c3ccc(-c4ccccc4)cc3)OC(CO)C(O)C2O)cc1 (stereo not drawn) [compound 12] | + (+ indicates an MIC value of less than 128 micrograms per mL) | + (+ indicates an MIC value of less than 128 micrograms per mL) | + (+ indicates an MIC value of less than 128 micrograms per mL)
Cc1ccc(NC(=N)NC2[C@H](O[C@@H]3C(NC(=O)Nc4cccc(C(F)(F)F)c4)COC(CO)[C@@H]3NC(=O)c3ccc(-c4ccccc4)cc3)OC(CO)[C@@H](O)[C@@H]2O)cc1 (stereo partly drawn) [compound 46] | – | − (− indicates an MIC of greater then 128 micrograms per mL) | + (+ indicates an MIC value of less than 128 micrograms per mL)
Cc1ccc(S(=O)(=O)NC2[C@H](O[C@@H]3C(NC(=N)Nc4cccc(C(F)(F)F)c4)COC(CO)[C@@H]3N)OC(CO)[C@@H](O)[C@@H]2O)cc1 (stereo partly drawn) [compound 13] | + (+ indicates an MIC value of less than 128 micrograms per mL) | – | –
CCCCCCCCCCC(=O)NC1C(CO)OCC(NC(=O)Nc2cccc(C(F)(F)F)c2)C1OC1OC(CO)C(O)C(O)C1NC(=O)OCc1ccccc1 (stereo not drawn) [compound 78] | + (+ indicates an MIC value of less than 128 micrograms per mL) | – | –
N=C(Nc1cccc(C(F)(F)F)c1)NC1[C@H](O[C@@H]2C(NC(=N)Nc3cccc(C(F)(F)F)c3)COC(CO)[C@@H]2NC(=O)C(N)c2ccc(-c3ccccc3)cc2)OC(CO)[C@@H](O)[C@@H]1O (stereo partly drawn) [compound 25] | + (+ indicates an MIC value of less than 128 micrograms per mL) | + (+ indicates an MIC value of less than 128 micrograms per mL) | + (+ indicates an MIC value of less than 128 micrograms per mL)
CCCCCCCCCCC(=O)NC1C(CO)OCC(NC(=O)NCCCC)C1OC1OC(CO)C(O)C(O)C1NS(=O)(=O)c1ccc(C)cc1 (stereo not drawn) [compound 80] | + (+ indicates an MIC value of less than 128 micrograms per mL) | – | –
CCCCCCCCOc1ccc(C(=O)NC2C(CO)OCC(NC(=O)Nc3cccc(C(F)(F)F)c3)C2OC2OC(CO)C(O)C(O)C2NC(=O)Nc2cccc(C(F)(F)F)c2)cc1 (stereo not drawn) [compound 64] | + (+ indicates an MIC value of less than 128 micrograms per mL) | – | + (+ indicates an MIC value of less than 128 micrograms per mL)
N=C(Nc1cccc(C(F)(F)F)c1)NC1[C@H](O[C@@H]2C(NC(=N)Nc3cccc(C(F)(F)F)c3)COC(CO)[C@@H]2NC(=N)Nc2ccc(-c3ccccc3)cc2)OC(CO)[C@@H](O)[C@@H]1O (stereo partly drawn) [compound 21] | + (+ indicates an MIC value of less than 128 micrograms per mL) | + (+ indicates an MIC value of less than 128 micrograms per mL) | + (+ indicates an MIC value of less than 128 micrograms per mL)
NC1[C@H](O[C@@H]2C(NC(=O)Nc3cccc(C(F)(F)F)c3)COC(CO)[C@@H]2NC(=O)c2ccc(-c3ccccc3)cc2)OC(CO)[C@@H](O)[C@@H]1O (stereo partly drawn) [compound 43] | + (+ indicates an MIC value of less than 128 micrograms per mL) | – | –
CCCCCC(C)CCC(=O)N[C@H]1C(CO)OCC(NC(=O)Nc2cccc(C(F)(F)F)c2)[C@H]1O[C@@H]1OC(CO)[C@@H](O)[C@H](O)C1NC(=O)Nc1cccc(C(F)(F)F)c1 (stereo partly drawn) [compound 55] | + (+ indicates an MIC value of less than 128 micrograms per mL) | – | + (+ indicates an MIC value of less than 128 micrograms per mL)
O=C(Nc1cccc(C(F)(F)F)c1)NC1C(OC2C(NC(=O)c3cccc(C(F)(F)F)c3)COC(CO)C2NC(=O)c2ccc(-c3ccccc3)cc2)OC(CO)C(O)C1O (stereo not drawn) [compound 5] | + (+ indicates an MIC value of less than 128 micrograms per mL) | − (− indicates an MIC of greater then 128 micrograms per mL) | + (+ indicates an MIC value of less than 128 micrograms per mL)
O=C(Cc1cccc(C(F)(F)F)c1)NC1COC(CO)C(NC(=O)c2ccc(-c3ccccc3)cc2)C1OC1OC(CO)C(O)C(O)C1NC(=O)Cc1cccc(C(F)(F)F)c1 (stereo not drawn) [compound 2] | + (+ indicates an MIC value of less than 128 micrograms per mL) | − (− indicates an MIC of greater then 128 micrograms per mL) | + (+ indicates an MIC value of less than 128 micrograms per mL)
O=C(Cc1ccc(C(F)(F)F)cc1)NC1COC(CO)C(NC(=O)c2ccc(-c3ccccc3)cc2)C1OC1OC(CO)C(O)C(O)C1NC(=O)Nc1cccc(C(F)(F)F)c1 (stereo not drawn) [compound 7] | + (+ indicates an MIC value of less than 128 micrograms per mL) | − (− indicates an MIC of greater then 128 micrograms per mL) | + (+ indicates an MIC value of less than 128 micrograms per mL)
O=C(Nc1cccc(C(F)(F)F)c1)NC1COC(CO)[C@H](NC(=O)c2ccc(-c3ccccc3)cc2)[C@@H]1O[C@@H]1OC(CO)[C@@H](O)[C@H](O)C1NC(=O)OCc1ccccc1 (stereo partly drawn) [compound 44] | + (+ indicates an MIC value of less than 128 micrograms per mL) | – | + (+ indicates an MIC value of less than 128 micrograms per mL)
Cc1ccc(NC(=N)NC2[C@H](O[C@@H]3C(NC(=O)Nc4cccc(C(F)(F)F)c4)COC(CO)[C@@H]3N)OC(CO)[C@@H](O)[C@@H]2O)cc1 (stereo partly drawn) [compound 47] | + (+ indicates an MIC value of less than 128 micrograms per mL) | – | –
